This passage reports GI50 and TGI results from PubChem BioAssay (NCI).

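Growth conditions: 96-well plates. Treatment: test compound, 48 hours, 5 concentrations. Analysis: linear interpolation between bracketing concentrations; unreached endpoints set to highest concentration. GI50 = concentration required for 50% inhibition of growth. TGI: total growth inhibition.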

Among the test systems are SNB-19 CNS; EKVX NSCLC; HCT-15 colon; UACC-62 melanoma; KM12 colon; OVCAR-5 ovarian; SNB-75 CNS; MALME-3M melanoma; HT29 colon; UACC-257 melanoma.
Common to all, as to assay: inhibition of tumour cell growth, NCI panel, 48 h

For the molecule `NC(=O)c1c(NC(=O)c2ccccn2)sc2c1CCC(=O)C2`, the GI50 was 3.45 µM with SNB-19 CNS; 5.01 µM with EKVX NSCLC; 2.63 µM with HCT-15 colon; 2.52 µM with UACC-62 melanoma; 3.26 µM in the experiment with KM12 colon; 3.05 µM in the experiment with OVCAR-5 ovarian. Besides, the TGI in the experiment with SNB-19 CNS is over 100 µM; with EKVX NSCLC, over 100 µM; in the experiment with HCT-15 colon, over 100 µM; in the experiment on UACC-62 melanoma it was 67.1 µM; in the experiment with KM12 colon, over 100 µM; in the experiment with OVCAR-5 ovarian, over 100 µM.

As for `COc1nc(C#CC2(O)CCCCC2)nc(OC)n1`, the TGI is 40.3 µM with SNB-75 CNS; over 100 µM in the experiment with SNB-19 CNS; 15.3 µM in the experiment with MALME-3M melanoma; 45.4 µM in the experiment on HT29 colon; 31.7 µM with UACC-257 melanoma; 35.6 µM with EKVX NSCLC. Moreover, the TGI with HCT-15 colon came to 15.6 µM; in the experiment with UACC-62 melanoma, 20.2 µM; with KM12 colon it was 30.2 µM; with OVCAR-5 ovarian, 25.4 µM.

Turning to `O=C(OCN1C(=O)C2C3C=CC(C2C1=O)C1C2C(=O)N(COC(=O)C4CCCN4)C(=O)C2C31)C1CCCN1` (stereo not given), the TGI with SNB-75 CNS, with SNB-19 CNS, in the experiment with MALME-3M melanoma, in the experiment on HT29 colon, with UACC-257 melanoma and in the experiment with EKVX NSCLC was over 100 µM throughout. In addition, the TGI with HCT-15 colon was over 58.7 µM; with UACC-62 melanoma, over 100 µM; with KM12 colon, over 100 µM; in the experiment on OVCAR-5 ovarian, over 100 µM.

For `O=C(O)C1C2CCC(O2)C1C(=O)Nc1cccc2cccnc12` (stereo not given), the TGI in the experiment with SNB-75 CNS, with SNB-19 CNS, in the experiment with MALME-3M melanoma, in the experiment with HT29 colon, with UACC-257 melanoma and in the experiment with EKVX NSCLC was over 100 µM in each case. In addition, the TGI in the experiment on HCT-15 colon, in the experiment on UACC-62 melanoma, in the experiment with KM12 colon and with OVCAR-5 ovarian was over 100 µM each time.

Take `COc1ccc2c(c1)[nH]c1c(/C=C/c3ccccc3)nccc12`: the TGI with SNB-75 CNS is 32.3 µM; in the experiment on SNB-19 CNS it was 38.5 µM; with MALME-3M melanoma, 31.5 µM; in the experiment with HT29 colon it was 33.9 µM; with UACC-257 melanoma it was 31.1 µM; in the experiment with EKVX NSCLC, 29.6 µM. Besides, the TGI in the experiment with HCT-15 colon was 34.7 µM; in the experiment with UACC-62 melanoma, 28.9 µM; with KM12 colon, 41.2 µM; in the experiment with OVCAR-5 ovarian, 30.5 µM.

`CN(C)CC(CC1=C(CC(CN(C)C)N(C)C)CCC1)N(C)C` (stereo not given): the TGI in the experiment on SNB-75 CNS, in the experiment on SNB-19 CNS, in the experiment with MALME-3M melanoma, in the experiment on HT29 colon, with UACC-257 melanoma and with EKVX NSCLC was over 100 µM throughout. Besides, the TGI in the experiment on HCT-15 colon, in the experiment on UACC-62 melanoma, in the experiment on KM12 colon and in the experiment on OVCAR-5 ovarian was over 100 µM each time.

As to `CC1=CC(=O)c2ccccc2C1=O`, the TGI is 22.1 µM in the experiment on SNB-75 CNS; 33.5 µM in the experiment with SNB-19 CNS; 10.9 µM in the experiment on MALME-3M melanoma; 34.1 µM with HT29 colon; 9.08 µM in the experiment on UACC-257 melanoma; 31.8 µM with EKVX NSCLC. For the same molecule, the TGI amounted to 14.1 µM with HCT-15 colon, 10.3 µM with UACC-62 melanoma, 23 µM in the experiment with KM12 colon and 26.7 µM in the experiment with OVCAR-5 ovarian.

Regarding `Nc1nc(SCCc2ccccc2)nc2nc3c(c(-c4ccccc4)c12)CCCC3`, the TGI in the experiment with SNB-75 CNS is 83.7 µM; with SNB-19 CNS, over 100 µM; in the experiment on MALME-3M melanoma, over 100 µM; with HT29 colon, over 100 µM; in the experiment on UACC-257 melanoma it was over 100 µM; with EKVX NSCLC, over 100 µM. Moreover, the TGI in the experiment with HCT-15 colon, in the experiment with UACC-62 melanoma and in the experiment on KM12 colon was over 100 µM throughout.

With `COc1cccc2c1Cc1cc(-c3ccccc3)[n+](C)n1-2`, the TGI is 58.6 µM in the experiment with SNB-75 CNS; over 100 µM in the experiment with SNB-19 CNS; 25.6 µM with MALME-3M melanoma; 32 µM in the experiment with HT29 colon; 14.4 µM with UACC-257 melanoma; 8.22 µM with EKVX NSCLC. In addition, the TGI was over 100 µM in the experiment on HCT-15 colon, 30.3 µM in the experiment with UACC-62 melanoma, 34.3 µM in the experiment on KM12 colon and over 100 µM with OVCAR-5 ovarian.

Turning to `C[C@H](CCC(=O)O)[C@H]1CC[C@@]2(C)[C@@H]3C(=O)C[C@H]4C(C)(C)[C@@H](O)CC[C@]4(C)[C@H]3C(=O)C[C@]12C`, the TGI in the experiment with SNB-75 CNS, in the experiment on SNB-19 CNS, in the experiment on MALME-3M melanoma, in the experiment with HT29 colon, in the experiment on UACC-257 melanoma and with EKVX NSCLC was over 100 µM each time. For the same molecule, the TGI in the experiment with HCT-15 colon, in the experiment with UACC-62 melanoma, in the experiment on KM12 colon and in the experiment with OVCAR-5 ovarian was over 100 µM throughout.

With `CCn1c(-c2ccc(N=NNc3ccc(-c4n[nH]c(=S)n4CC)cc3)cc2)n[nH]c1=S`, the TGI in the experiment on SNB-75 CNS was 6.92 µM; in the experiment on SNB-19 CNS, 9.53 µM; with MALME-3M melanoma it was 7.75 µM; in the experiment on HT29 colon it was over 100 µM; in the experiment with UACC-257 melanoma it was over 100 µM; in the experiment on EKVX NSCLC it was 75.4 µM. Moreover, the results for the TGI in the experiment on HCT-15 colon and with KM12 colon were over 100 µM and 5.93 µM, respectively.

With `O=c1cccccc1[O-].O=c1cccccc1[O-].[O]=[U+2]=[O]`, the TGI in the experiment on SNB-19 CNS is 82.2 µM; with HT29 colon, over 100 µM; with UACC-257 melanoma it was 68.5 µM; in the experiment on EKVX NSCLC, over 100 µM; in the experiment with HCT-15 colon it was over 100 µM; with UACC-62 melanoma, 41.6 µM.

For `Nc1ccccc1S(=O)(=O)c1ccccc1`, the TGI in the experiment on SNB-75 CNS, with SNB-19 CNS, in the experiment on MALME-3M melanoma, in the experiment on HT29 colon, with UACC-257 melanoma and in the experiment on EKVX NSCLC was over 100 µM throughout. Besides, the TGI in the experiment on HCT-15 colon, in the experiment with UACC-62 melanoma, in the experiment on KM12 colon and in the experiment with OVCAR-5 ovarian was over 100 µM each time.

Take `O=C(/C=C/c1ccc(O)c(-c2cc(C(=O)/C=C/c3ccc(O)cc3)c(O)cc2O)c1)c1ccc(O)cc1O`: the TGI was 36 µM in the experiment with SNB-75 CNS; over 50 µM with SNB-19 CNS; over 50 µM in the experiment on MALME-3M melanoma; 22.3 µM with HT29 colon; over 50 µM in the experiment with UACC-257 melanoma; over 50 µM in the experiment with EKVX NSCLC. Further, the TGI with HCT-15 colon was over 50 µM; in the experiment with UACC-62 melanoma, 20.4 µM; with KM12 colon, 31.7 µM; in the experiment on OVCAR-5 ovarian it was over 50 µM.
